Patent US9593123B2, “Triazolo[4,5-D]pyrimidine derivatives” (Hoffmann-La Roche Inc., priority 2013, dated 2017)

Experiments:
human CB2 receptor = human CB2 receptor (Homo sapiens (Human), UniProt P34972); assay: cAMP assay, CHO cells expressing human CB2 receptors; type: cell-based; conditions: functional cAMP assay, read-out: CB2 hcAMP EC50
Method in brief: (§1)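 CHO cells with human CB1 or CB2 were switched to Krebs Ringer bicarbonate buffer with 1 mM IBMX for 30 min at 30 °C, then given compound for 30 min at 30 °C. cAMP was measured by time-resolved FRET against a cAMP standard curve, and EC50 values were calculated.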

human CB1 receptor = human CB1 receptor (Homo sapiens (Human), UniProt P21554); assay: cAMP assay, CHO cells expressing human CB1 receptors; type: cell-based; conditions: functional cAMP assay, read-out: CB1 hcAMP EC50
human CB1 receptor, sequence (P21554 whole entry): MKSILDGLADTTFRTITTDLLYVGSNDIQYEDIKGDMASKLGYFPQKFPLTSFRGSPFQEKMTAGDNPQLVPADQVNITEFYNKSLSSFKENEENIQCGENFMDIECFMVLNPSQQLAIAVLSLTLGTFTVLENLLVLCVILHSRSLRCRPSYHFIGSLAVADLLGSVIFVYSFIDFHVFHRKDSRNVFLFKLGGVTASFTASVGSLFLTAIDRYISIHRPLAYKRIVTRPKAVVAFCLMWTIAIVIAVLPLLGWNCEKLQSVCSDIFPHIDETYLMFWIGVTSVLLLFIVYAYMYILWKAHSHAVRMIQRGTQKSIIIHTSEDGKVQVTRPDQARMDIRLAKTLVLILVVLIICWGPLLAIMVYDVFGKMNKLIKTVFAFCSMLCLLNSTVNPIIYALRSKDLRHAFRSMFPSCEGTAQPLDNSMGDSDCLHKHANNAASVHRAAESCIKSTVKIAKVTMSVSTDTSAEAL
Method in brief: as §1

human CB2 receptor, sequence (P34972 whole entry): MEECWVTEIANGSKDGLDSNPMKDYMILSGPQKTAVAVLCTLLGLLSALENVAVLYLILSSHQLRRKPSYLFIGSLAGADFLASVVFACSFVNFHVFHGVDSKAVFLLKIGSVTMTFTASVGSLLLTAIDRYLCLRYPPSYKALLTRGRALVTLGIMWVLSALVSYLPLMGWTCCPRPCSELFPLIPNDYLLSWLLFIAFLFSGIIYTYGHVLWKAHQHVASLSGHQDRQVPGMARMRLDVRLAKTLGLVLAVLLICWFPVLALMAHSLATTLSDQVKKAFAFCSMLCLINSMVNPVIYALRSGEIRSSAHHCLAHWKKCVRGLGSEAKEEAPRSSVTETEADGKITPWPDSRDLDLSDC

How did the EC50 (human CB2 receptor) turn out when `CC(C)Sc1nc(N2CCC(F)(F)C2)c2nnn(Cc3ccccc3Cl)c2n1` [Example 84, 3-[(2-Chlorophenyl)methyl]-7-(3,3-difluoropyrrolidin-1-yl)-5-propan-2-ylsulfanyltriazolo[4,5-d]pyrimidine] was run?
The EC50 was 2.3 nM.

And the EC50 (human CB1 receptor)?
The EC50 was 80 nM.

For `CC(C)(C)Sc1nc(N2CCC(F)(F)C2)c2nnn(Cc3ccccc3Cl)c2n1` [Example 85, 5-tert-Butylsulfanyl-3-[(2-chlorophenyl)methyl]-7-(3,3-difluoropyrrolidin-1-yl)triazolo[4,5-d]pyrimidine], which EC50 (human CB2 receptor) is on record?
The EC50 was 0.9 nM.

What about the EC50 (human CB1 receptor) of the same compound?
The EC50 was 108 nM.

`CCS(=O)(=O)c1nc(N2CCC(F)(F)C2)c2nnn(Cc3ccccc3Cl)c2n1` [Example 86, 3-[(2-Chlorophenyl)methyl]-7-(3,3-difluoropyrrolidin-1-yl)-5-ethylsulfonyltriazolo [4,5-d]pyrimidine] was tested. Which EC50 (human CB2 receptor) did it give?
Its EC50 is 86.6 nM.

And the EC50 (human CB1 receptor)?
Its EC50 is > 10000 nM.

How did the EC50 (human CB2 receptor) turn out when `O=S(=O)(Cc1ccccc1)c1nc(N2CCC(F)(F)C2)c2nnn(Cc3ccccc3Cl)c2n1` [Example 87, 5-Benzylsulfonyl-3-[(2-chlorophenyl)methyl]-7-(3,3-difluoropyrrolidin-1-yl)triazolo [4,5-d]pyrimidine] was run?
The EC50 was 83 nM.

What about the EC50 (human CB1 receptor) of the same compound?
The EC50 was > 10000 nM.

What does the source list for `CC(C)S(=O)(=O)c1nc(N2CCC(F)(F)C2)c2nnn(Cc3ccccc3Cl)c2n1` [Example 88, 3-[(2-Chlorophenyl)methyl]-7-(3,3-difluoropyrrolidin-1-yl)-5-propan-2-ylsulfonyltriazolo[4,5-d]pyrimidine]?
EC50 (human CB2 receptor): 1.7 nM; EC50 (human CB1 receptor): > 10000 nM

With `OCCSc1nc(N2CCC(F)(F)C2)c2nnn(Cc3ccccc3Cl)c2n1` [Example 89, 2-[3-[(2-Chlorophenyl)methyl]-7-(3,3-difluoropyrrolidin-1-yl)triazolo[4,5-d]pyrimidin-5-yl]sulfanylethanol] as the compound, how does the EC50 (human CB2 receptor) read?
Its EC50 is 7.4 nM.

What about the EC50 (human CB1 receptor) of the same compound?
Its EC50 is > 10000 nM.

Which results are given for `CC(O)CSc1nc(N2CCC(F)(F)C2)c2nnn(Cc3ccccc3Cl)c2n1` (stereo not shown) [Example 90, 1-[3-[(2-Chlorophenyl)methyl]-7-(3,3-difluoropyrrolidin-1-yl)triazolo[4,5-d]pyrimidin-5-yl]sulfanylpropan-2-ol]?
EC50 (human CB2 receptor): 15.6 nM; EC50 (human CB1 receptor): > 10000 nM

Which EC50 (human CB2 receptor) does the source give for `CCCCSc1nc(N2CCC(F)(F)C2)c2nnn(Cc3ccccc3Cl)c2n1` [Example 91, 5-Butylsulfanyl-3-[(2-chlorophenyl)methyl]-7-(3,3-difluoropyrrolidin-1-yl)triazolo [4,5-d]pyrimidine] here?
Its EC50 is 6.9 nM.

What about the EC50 (human CB1 receptor) of the same compound?
Its EC50 is > 10000 nM.

What does the source list for `CC(C)CSc1nc(N2CCC(F)(F)C2)c2nnn(Cc3ccccc3Cl)c2n1` [Example 92, 3-[(2-Chlorophenyl)methyl]-7-(3,3-difluoropyrrolidin-1-yl)-5-(2-methylpropylsulfanyl)triazolo[4,5-d]pyrimidine]?
EC50 (human CB2 receptor): 2.5 nM; EC50 (human CB1 receptor): > 10000 nM

For `CCCCS(=O)(=O)c1nc(N2CCC(F)(F)C2)c2nnn(Cc3ccccc3Cl)c2n1` [Example 93, 5-Butylsulfonyl-3-[(2-chlorophenyl)methyl]-7-(3,3-difluoropyrrolidin-1-yl)triazolo [4,5-d]pyrimidine], which EC50 (human CB2 receptor) is on record?
The EC50 was 8.8 nM.

What about the EC50 (human CB1 receptor) of the same compound?
The EC50 was > 10000 nM.

With `CC(C)CS(=O)(=O)c1nc(N2CCC(F)(F)C2)c2nnn(Cc3ccccc3Cl)c2n1` [Example 94, 3-[(2-Chlorophenyl)methyl]-7-(3,3-difluoropyrrolidin-1-yl)-5-(2-methylpropylsulfonyl)triazolo[4,5-d]pyrimidine] as the compound, how does the EC50 (human CB2 receptor) read?
Its EC50 is 2.8 nM.

What about the EC50 (human CB1 receptor) of the same compound?
The EC50 was > 10000 nM.

Which results are given for `CC(O)CS(=O)(=O)c1nc(N2CCC(F)(F)C2)c2nnn(Cc3ccccc3Cl)c2n1` (stereo not shown) [Example 95, 1-[3-[(2-Chlorophenyl)methyl]-7-(3,3-difluoropyrrolidin-1-yl)triazolo[4,5-d]pyrimidin-5-yl]sulfonylpropan-2-ol]?
EC50 (human CB2 receptor): 64.4 nM; EC50 (human CB1 receptor): > 10000 nM

How did the EC50 (human CB2 receptor) turn out when `COCCS(=O)(=O)c1nc(N2CCC(F)(F)C2)c2nnn(Cc3ccccc3Cl)c2n1` [Example 96, 3-[(2-Chlorophenyl)methyl]-7-(3,3-difluoropyrrolidin-1-yl)-5-(2-methoxyethylsulfonyl)triazolo[4,5-d]pyrimidine] was run?
The EC50 was 5.1 nM.

What about the EC50 (human CB1 receptor) of the same compound?
The EC50 was > 10000 nM.

What does the source list for `CC(=O)N[C@H]1CCN(c2nc(NC(C)(C)C)nc3c2nnn3Cc2ccccc2Cl)C1` [Example 97, N-[(3S)-1-[5-(tert-butylamino)-3-[(2-chlorophenyl)methyl]triazolo[4,5-d]pyrimidin-7-yl]pyrrolidin-3-yl]acetamide]?
EC50 (human CB2 receptor): 38 nM; EC50 (human CB1 receptor): > 10000 nM
